# Results reported in patent publication US20230218559A1, “Compositions and Methods for Treating Aging and Age-Related Diseases and Symptoms” (The Regents of the University of California, priority 2014, published 2023).
# Assays:
# [1] = test system: normal human diploid fibroblasts WI-38; test: Cell growth assay; type: cell-based; settings: data not shown
# Description: (§1) Cells were seeded in 12-well plates and after overnight incubation were treated with indicated concentrations of each compound. After harvesting, cells were stained by Acridine Orange (AO) and DAPI. Cell number and viability were measured based on AO and DAPI fluorescence measured by NC3000 (Chemometec) following the manufacturer's instructions.
# [2] = test system: A549; test: Cell growth assay; type: cell-based, human; settings: data not shown
# Description: as §1
# [3] = test system: HEK 293 cells; test: Cell growth assay; type: cell-based, human; settings: data not shown
# Description: as §1
# [4] = test system: Jurkat; test: Cell growth assay; type: cell-based, human; settings: data not shown
# Description: as §1
# [5] = test system: electron transport chain (Complex I, Complex II, Complex IV); test: Mitochondrial electron flow assay; type: biochemical, mouse
# Description: Mitochondria were isolated from mouse liver as described above.
# For the electron flow assay, the MAS buffer was supplemented with 10 mM sodium pyruvate (Complex I substrate), 2 mM malate (Complex II inhibitor), and 4 μM FCCP, and the mitochondria are seeded the same way as described for the coupling assay. After basal readings, the sequential injections were as follows: 2 μM rotenone (Complex I inhibitor), 10 mM succinate (Complex II substrate), 4 μM antimycin A (Complex III inhibitor), and 10 mM/100 μM ascorbate/tetramethylphenylenediamine (Complex IV substrate).
# [6] = target: T1, ATP synthase (Complex V) (Mus musculus, UniProt P56480); test: Mitochondrial coupling assay / respiratory control ratio; type: biochemical; settings: mouse liver mitochondria
# T1 construct: Mitochondria were isolated from mouse liver as described above; from tissue; host or cells: isolated mouse liver mitochondria
# Description: Mitochondrial RCR was analyzed using isolated mouse liver mitochondria (see Brand, et al. Biochem J 435, 297-312 (2011) and references therein). Mitochondria were isolated from mouse liver as described above. The final mitochondrial pellet was resuspended in 30 μl of MAS buffer (70 mM sucrose, 220 mM mannitol, 10 mM KH2PO4, 5 mM MgCl2, 2 mM HEPES, 1 mM EGTA, and 0.2% fatty acid free BSA, pH 7.2).
# Isolated mitochondrial respiration was measured by running coupling and electron flow assays as described (Rogers, et al. PLoS One 6, e21746 (2011)). For the coupling assay, 20 μg of mitochondria in complete MAS buffer (MAS buffer supplemented with 10 mM succinate and 2μM rotenone) were seeded into a XF24 Seahorse plate by centrifugation at 2,000×g for 20 minutes at 4° C. […] Mitochondrial respiration begins in a coupled State 2; State 3 is initiated by 2 mM ADP; State 4o (oligomycin-insensitive, i.e., Complex V-independent) is induced by 2.5 μM oligomycin and State 3u (FCCP uncoupled maximal respiratory capacity) by 4 μM FCCP. Finally, 1.5 μg/ml antimycin A was injected at the end of the assay.
# [7] = target: T2, ATP5B (Homo sapiens, UniProt P06576); test: DARTS (drug affinity responsive target stability) with Western blotting; type: binding; settings: human cell lysates, Pronase digestion
# T2 construct: HeLa cells were lysed in M-PER buffer; endogenous in cells; host or cells: HeLa (alpha-KG); U87 (2-HG)
# T2 sequence (P06576 48-529): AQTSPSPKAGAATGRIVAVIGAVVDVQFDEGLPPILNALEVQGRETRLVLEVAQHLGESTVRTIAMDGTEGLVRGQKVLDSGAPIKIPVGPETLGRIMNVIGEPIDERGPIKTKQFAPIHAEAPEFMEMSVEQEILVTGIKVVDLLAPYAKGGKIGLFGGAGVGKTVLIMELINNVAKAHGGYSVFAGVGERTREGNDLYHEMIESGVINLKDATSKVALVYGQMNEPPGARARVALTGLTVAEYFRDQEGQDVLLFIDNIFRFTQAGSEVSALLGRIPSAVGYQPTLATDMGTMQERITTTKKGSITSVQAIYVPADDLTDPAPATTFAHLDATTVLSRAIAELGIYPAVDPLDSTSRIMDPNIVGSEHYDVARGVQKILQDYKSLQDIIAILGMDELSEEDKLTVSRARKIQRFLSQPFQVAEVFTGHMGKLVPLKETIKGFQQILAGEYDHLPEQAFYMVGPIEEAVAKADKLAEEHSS
# Description: Target identification using DARTS was conducted in accordance with methods know in the art. […] The resulting digests were separated by SDS-PAGE and visualized using SYPRO Ruby Protein Gel Stain (Invitrogen, S12000).
# GAPDH (Ambion, AM4300) was used as a negative control.
# For 2-HG experiments, DARTS was performed as described above.
# [8] = test system: C. elegans; test: C. elegans lifespan analysis; type: in vivo, Caenorhabditis elegans; settings: for mean lifespan: 8 mM; for effect on lifespan of adult C. elegans (in words): adult worms, metabolites at 8 mM; for lifespan of subjects (in words): experiments similar to those for α-KG and 2-HG compounds, data not shown
# Description: Lifespan assays were conducted at 20° C. on solid nematode growth media (NGM) using standard protocols and were replicated in at least two independent experiments. […] All compounds were mixed into the NGM media after autoclaving and before solidification of the media. Assay plates were seeded with OP50 (or a designated RNAi feeding clone, see below). Worms were moved to new assay plates every 4 days (to ensure sufficient food was present at all times and to reduce the risk of mold contamination). […] For analysis concerning mutant strains, the corresponding parent strain was used as a control in the same experiment. […]
# Lifespan data is provided in FIG. 13, including sample sizes. The sample size was chosen on the basis of standards done in the field in published manuscripts. No statistical method was used to predetermine the sample size. Animals were assigned randomly to the experimental groups. […] Lifespan data were analyzed using GraphPad Prism; P-values were calculated using the log-rank (Mantel-Cox) test.
# [9] = test system: U87 cells; test: Oxygen consumption rate in U87 cells (2-HG experiments); type: cell-based, human
# Description: For 2-HG experiments, OCR and ECAR measurements were made using a Seahorse XF-24 analyzer (Seahorse Bioscience) (Wu, et al. Am J Physiol Cell Physiol 292, C125-136 (2007)). U87 cells were seeded in Seahorse XF-24 cell culture microplates at 50,000 cells per well in DMEM supplemented with 10% FBS and either 10 mM glucose or 10 mM galactose, and incubated 0/N at 37° C. in 5% CO2. […] Cells were washed in unbuffered DMEM (pH 7.4, 10 mM glucose) immediately prior to measurement, and maintained in this buffer with indicated concentrations of compound. OCR or ECAR were measured 3 times under basal conditions and normalized to protein concentration per well. Statistical analysis was performed using GraphPad Prism (unpaired t-test, two-tailed, two-sample unequal variance).
# [10] = test system: U87 cells; test: Assay for ATP levels in U87 cells; type: cell-based, human; settings: mitochondrial oxidative phosphorylation conditions, 2 hours
# Description: For 2-HG experiments, U87 cells were seeded in 96-well plates at 2×10^4 cells per well and treated with indicated compound for 2 hours in triplicate. ATP levels were measured using the CellTiter-Glo luminescent ATP assay (Promega, G7572); luminescence was read using Analyst HT (Molecular Devices). […] Statistical analysis was performed using GraphPad Prism (unpaired t-test).
# [11] = test system: U87 cells
# Description: Cells were cultured for 24 hours, rinsed with PBS, and medium containing [1,2-^13C]glucose (1 g/L) added. […] Cells were scraped off, transferred to an Eppendorf tube, and 10 nmol norvaline as well as 400 ml chloroform added to each sample. For the metabolite extraction, samples were vortexed for 5 minutes on ice, spun down, and the aqueous layer transferred into a glass vial and dried. Metabolites were resuspended in 70% ACN, and 5 ml sample loaded onto a Phenomenex Luna 3u NH2 100A (150×2.0 mm) column. The chromatographic separation was performed on an UltiMate 300RSLC (Thermo Scientific) with mobile phases A (5 mM NH4AcO, pH 9.9) and B (ACN) and a flow rate of 300 ml / minutes. […] TraceFinder 3.1 (Thermo Scientific) was used to quantify metabolites as area under the curve using retention time and accurate mass measurements (≤3 ppm). Relative amounts of metabolites were calculated by summing up all isotopomers of a given metabolite.
# [12] = test system: U87 cells; test: Cell growth and viability assays in U87 cells; type: cell-based, human
# Description: IDH1(R132H) mutant or IDH1(WT) expressing U87 cells were as reported (Li, et al. Neuro Oncol 15, 57-68). […] All the cells were cultured at 37° C. and 5% CO2. Cells were transfected with indicated siRNA using Thermo Scientific DharmaFECT Transfection Reagent 1 by following the manufacturer's instructions.
# as §1
# [13] = test system: ADP import into the mitochondria; test: Assay for ADP import; type: biochemical; settings: mouse liver mitochondria, 600 μM; (R) P=0.4237, (S) P=0.1623
# Description: Freshly prepared mice liver mitochondria were suspended at 1 μg/μl in medium consisting of 220 mM mannitol, 70 mM sucrose, 2 mM HEPES, 2.74 μM antimycin A, 5 μM rotenone, 1 mM
# EGTA, and 10 mM potassium phosphate buffer, pH 7.4. The mitochondria suspension was incubated with designated drug for 30 minutes in 37° C. After incubation, the suspension was transferred to ice for 10 minutes incubation. Afterwards, 100 μM [^3H]ADP (specific radioactivity, 185 kBq/pmol) was added, and the mixture was immediately vortexed and incubated for 20 seconds on ice. The reaction was terminated by addition of 10 μM carboxyatractyloside, and the mixture was centrifuged at 10,000 g for 10 minutes at 4° C. After centrifuge, the supernatant was collected for reading and the pellet was washed twice with the same medium supplemented with 10 μM carboxyatractyloside. After washing, the pellet was lysed by the addition of 0.2 ml of 1% SDS. The radioactivity of the lysate and supernatant was determined by TRI-CARB 2300 TR liquid scintillation analyzer. The ADP-ATP translocation rate was determined by the ratio of the pellet versus the sum reading of the pellet and supernatant.
# [14] = test system: AMPK; test: AMPK (T172) phosphorylation by Western blotting; type: cell-based, human; settings: WI-38 cells; higher concentration of octyl α-KG
# Description: Western blotting was performed with specific antibodies against P-AMPK T172 (Cell Signaling Technology, 2535S) and AMPK (Cell Signaling Technology, 2603S). […] Number of GFP::LGG-1 containing puncta was quantitated using ImageJ. Bars indicate the mean. […] HEK-293 (Panel d) or HeLa (Panel e) cells were lysed in M-PER buffer (Thermo Scientific, 78501) with the addition of protease inhibitors (Roche, 11836153001) and phosphatase inhibitors (50 mM NaF, 10 mM β-glycerophosphate, 5 mM sodium pyrophosphate, 2 mM Na3VO4). Protein concentration of the lysate was measured by BCA Protein Assay kit (Pierce, 23227). […] Pronase (Roche, 10165921001) digestions were performed for 20 minutes at room temperature, and stopped by adding SDS loading buffer and immediately heating at 95° C. for 5 minutes (for Panel d) or 70° C. for 10 minutes (for Panel e). Samples were subjected to SDS-PAGE on 4-12% Bis-Tris gradient gel (Invitrogen, NP0322BOX) and Western blotted with specific antibodies against ATP5B (Santa Cruz, sc58618), mTOR (Cell Signaling Technology, 2972), or GAPDH (Ambion, AM4300). ImageJ was used to quantify the mTOR/GAPDH and ATP5B/GAPDH ratios.
# [15] = test system: C. elegans; test: Assay for autophagy in C. elegans (GFP::LGG-1 puncta); type: in vivo, Caenorhabditis elegans
# Description: Statistical analysis was performed using Microsoft Excel (t-test, two-tailed, two-sample unequal variance).
# [16] = test system: mTOR; test: Assay for mammalian TOR (mTOR) pathway activity; type: cell-based, human; settings: U87 cells
# Source text: Specific antibodies used: P-S6K T389 (Cell Signaling Technology, 9234), S6K (Cell Signaling Technology, 9202S), P-4E-BP1 S65 (Cell Signaling Technology, 9451S), 4E-BP1 (Cell Signaling Technology, 9452S), P-AKT S473 (Cell Signaling Technology, 4060S), AKT (Cell Signaling Technology, 4691S), P-ULK1 S757 (Cell Signaling Technology, 6888), ULK1 (Cell Signaling Technology, 4773S), and GAPDH (Santa Cruz Biotechnology, 25778).
smiles,measurement,setting,value
"O=C(O)CCC(O)C(=O)O (stereo not shown) [2-HG, 2-hydroxypentanedioate]",cell growth,[1],Growth inhibition
same,cell growth,[2],Growth inhibition
same,cell growth,[3],Growth inhibition
same,cell growth,[4],Growth inhibition
"CCCCCCCCOC(=O)CCC(=O)C(=O)O [5-octyl α-KG, 5-(Octyloxy)-2,5-dioxopentanoic acid]","electron flow assay, 1-octyl versus 5-octyl ester",[5]; mouse liver mitochondria,identical results
same,"coupling assay, 1-octyl versus 5-octyl ester",[6],identical results
"O=C(O)CC[C@@H](O)C(=O)O [(R)-2-HG, 2-hydroxyglutaric acid]",binding to ATP5B by DARTS,[7],bind
same,mean lifespan,"[8]; FIG. 14 Panel B, vehicle 14.0",20.0 days of adulthood
same,effect on lifespan of adult C. elegans (in words),[8],increase the lifespan
"O=C(O)CC[C@H](O)C(=O)O [(S)-2-HG, 2-hydroxyglutaric acid]",binding to ATP5B by DARTS,[7],bind
same,mean lifespan,"[8]; FIG. 14 Panel C, vehicle 15.7",20.7 days of adulthood
same,effect on lifespan of adult C. elegans (in words),[8],increase the lifespan
N[C@H](CCC(=O)O)C(=O)O [D-glutamate],lifespan of subjects (in words),[8],increases the lifespan
N[C@@H](CCC(=O)O)C(=O)O [L-glutamate],lifespan of subjects (in words),[8],increases the lifespan
CC(C)C[C@H](N)C(=O)O [Leu],mean lifespan,"[8]; FIG. 14 Panel B, vehicle 14.0",13.2 days of adulthood
CSCC[C@H](N)C(=O)O [Met],mean lifespan,"[8]; FIG. 14 Panel B, vehicle 14.0",14.7 days of adulthood
O=C([O-])CCC(=O)C(=O)[O-].[Na+].[Na+] [Na2α-KG],mean lifespan,"[8]; FIG. 14 Panel C, vehicle 15.7",21.5 days of adulthood
CCCCCCCCOC(=O)C(O)CCC(=O)O (stereo not shown) [octyl 2-HG],"Complex I, Complex II, or Complex IV respiration","[5]; 30 minute treatment, 600 μM",No difference
same,ATP synthase dependent (oligomycin sensitive) oxygen consumption rate,[9]; U87 cells,decreased
same,respiration as indicated by OCR,[9]; U87 cells in glucose media,decreased
same,ATP content,[10],decreased
same,accumulation of 2-HG in treated cells,[11],20-100 fold
same,state 3 respiration,"[6]; 600 μM, octanol vehicle",decreases
same,state 4o or 3u respiration,"[6]; 600 μM, octanol vehicle",not
same,growth rate,"[12]; glucose medium, to a lesser extent, not shown",reduced
same,growth rate,"[12]; glucose-free medium, 400 μM and 800 μM",decreased growth rate
"CCCCCCCCOC(=O)[C@H](O)CCC(=O)O [octyl (R)-2-HG, 1-Octyl (R) 2-hydroxypentanedioate]",ADP import,[13],does not affect
same,viability upon glucose starvation,[12]; 400 μM and 800 μM,decreased
"CCCCCCCCOC(=O)[C@@H](O)CCC(=O)O [octyl (S)-2-HG, 1-Octyl (S) 2-hydroxypentanedioate]",ADP import,[13],does not affect
same,viability upon glucose starvation,[12]; 400 μM and 800 μM,decreased
"CC[C@H]1/C=C/C=C/C[C@@H](C)[C@H](O)[C@@](C)(O)C(=O)[C@@H](C)[C@H](O)[C@@H](C)C(=O)[C@@H](C)[C@H](O)[C@@H](C)/C=C/C(=O)O[C@@H]2[C@H](C)[C@H](CC1)O[C@]1(CC[C@H](C)[C@H](C[C@@H](C)O)O1)[C@H]2C [oligomycin, reference compound]",P-AMPK (T172),[14],increased
same,ATP content,[10],decreased
same,increase of mean lifespan of N2 worms,"[8]; 40 μM, from young adult stage",32.3%
same,effect on lifespan of adult C. elegans (in words),[8],extends the lifespan
same,autophagy (GFP::LGG-1 puncta),"[15]; CeTOR(RNAi) worms, oligomycin",does not augment
same,autophagy (GFP::LGG-1 puncta),"[15]; L3 epidermis, oligomycin 40, α-KG 8 mM, versus vehicle",significantly higher
same,phosphorylation of mTOR substrates,[16],decreased
